Experimental data as given in ChEMBL document CHEMBL1201862, “PubChem BioAssay data set” (2004).
Calls of active or inactive are those of the source.

Legend:
[1] = biological target: Peroxisome proliferator-activated receptor gamma/Nuclear receptor coactivator 3 (Homo sapiens, UniProt P37231); assay: TR-FRET dose response biochemical High Throughput Screening assay for agonists of the steroid receptor coactivator 3 (SRC-3) recruitment by the peroxisome proliferator-activated receptor gamma (PPAR gamma): non-selective agonists. [Related pubchem assays: 1301 (Confirmation screen.), 1048 (Primary screen.)]; type: functional
[2] = biological target: Voltage-gated inwardly rectifying potassium channel KCNH2 (Homo sapiens, UniProt Q12809); assay: concentration-dependent hERG rescue from blockers – cell-based, thallium flux, dose response (AID 2121); type: ADME
[3] = biological target: Peroxisome proliferator-activated receptor gamma/Nuclear receptor coactivator 2 (Homo sapiens, UniProt P37231); assay: (§1) TR-FRET dose response biochemical High Throughput Screening assay for agonists of the steroid receptor coactivator 2 (SRC-2) recruitment by the peroxisome proliferator-activated receptor gamma (PPAR gamma): non-selective agonists. [Related pubchem assays: 1297, 1032 ]; type: functional
[4] = biological target: Peroxisome proliferator-activated receptor gamma/Nuclear receptor coactivator 1 (Homo sapiens, UniProt P37231); assay: as §1, with “1 (SRC-1)” for “2 (SRC-2)”, “assays (depositor defined):AID1300, AID1808, AID504735, AID631]” for “assays: 1297, 1032 ]”; type: protein assay
Sequence of Peroxisome proliferator-activated receptor gamma/Nuclear receptor coactivator 1 (P37231 whole entry): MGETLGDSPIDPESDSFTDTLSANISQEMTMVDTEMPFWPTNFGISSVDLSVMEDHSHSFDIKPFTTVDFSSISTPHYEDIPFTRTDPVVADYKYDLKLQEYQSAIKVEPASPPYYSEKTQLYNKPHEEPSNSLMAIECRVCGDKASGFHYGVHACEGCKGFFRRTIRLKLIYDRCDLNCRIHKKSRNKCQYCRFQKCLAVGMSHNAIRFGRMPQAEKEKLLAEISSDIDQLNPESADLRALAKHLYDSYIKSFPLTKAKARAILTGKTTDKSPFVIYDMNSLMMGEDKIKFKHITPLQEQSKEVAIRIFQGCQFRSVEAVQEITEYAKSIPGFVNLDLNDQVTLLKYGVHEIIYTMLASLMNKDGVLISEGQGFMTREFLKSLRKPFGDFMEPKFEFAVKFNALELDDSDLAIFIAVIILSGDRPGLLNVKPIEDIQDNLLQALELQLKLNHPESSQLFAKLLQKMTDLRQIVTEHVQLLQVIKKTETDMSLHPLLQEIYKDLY
Sequence of Peroxisome proliferator-activated receptor gamma/Nuclear receptor coactivator 1 (Q15788 whole entry, further chain): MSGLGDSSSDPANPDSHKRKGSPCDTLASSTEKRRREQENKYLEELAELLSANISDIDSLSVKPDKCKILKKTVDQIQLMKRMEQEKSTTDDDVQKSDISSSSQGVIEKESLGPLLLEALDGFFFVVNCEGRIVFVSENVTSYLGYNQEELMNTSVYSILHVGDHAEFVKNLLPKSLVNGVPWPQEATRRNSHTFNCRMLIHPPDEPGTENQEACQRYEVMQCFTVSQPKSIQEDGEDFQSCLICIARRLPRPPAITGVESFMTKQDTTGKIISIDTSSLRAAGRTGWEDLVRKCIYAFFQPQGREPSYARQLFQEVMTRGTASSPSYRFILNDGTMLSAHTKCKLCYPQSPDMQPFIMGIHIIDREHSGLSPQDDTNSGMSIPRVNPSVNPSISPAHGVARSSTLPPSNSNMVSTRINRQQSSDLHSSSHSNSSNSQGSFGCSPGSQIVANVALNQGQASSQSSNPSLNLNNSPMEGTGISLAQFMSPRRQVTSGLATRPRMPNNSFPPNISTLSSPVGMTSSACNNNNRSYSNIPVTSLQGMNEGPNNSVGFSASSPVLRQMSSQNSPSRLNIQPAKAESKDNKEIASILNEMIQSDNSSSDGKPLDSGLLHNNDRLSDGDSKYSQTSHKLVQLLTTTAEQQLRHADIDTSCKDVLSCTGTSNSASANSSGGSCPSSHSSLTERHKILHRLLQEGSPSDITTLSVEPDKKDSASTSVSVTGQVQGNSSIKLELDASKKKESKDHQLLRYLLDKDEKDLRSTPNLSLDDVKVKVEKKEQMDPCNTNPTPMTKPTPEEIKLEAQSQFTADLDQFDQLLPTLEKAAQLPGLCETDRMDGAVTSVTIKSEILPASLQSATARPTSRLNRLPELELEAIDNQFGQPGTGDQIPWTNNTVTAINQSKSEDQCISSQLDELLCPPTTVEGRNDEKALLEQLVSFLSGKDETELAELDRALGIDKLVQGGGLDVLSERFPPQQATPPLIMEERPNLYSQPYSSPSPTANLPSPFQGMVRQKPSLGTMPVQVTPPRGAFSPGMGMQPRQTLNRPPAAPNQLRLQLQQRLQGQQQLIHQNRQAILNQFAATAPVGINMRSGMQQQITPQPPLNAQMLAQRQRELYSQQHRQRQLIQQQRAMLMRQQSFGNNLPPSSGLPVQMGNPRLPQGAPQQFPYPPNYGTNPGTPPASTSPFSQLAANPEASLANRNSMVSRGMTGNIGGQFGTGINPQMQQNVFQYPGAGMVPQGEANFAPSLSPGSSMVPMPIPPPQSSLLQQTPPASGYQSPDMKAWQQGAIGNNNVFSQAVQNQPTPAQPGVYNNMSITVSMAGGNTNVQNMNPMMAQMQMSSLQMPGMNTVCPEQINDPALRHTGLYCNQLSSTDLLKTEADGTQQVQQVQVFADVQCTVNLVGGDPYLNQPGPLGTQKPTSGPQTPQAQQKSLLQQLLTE

[5] = biological target: T1, Tyrosine-protein phosphatase non-receptor type 7 (Homo sapiens, UniProt P35236); assay: inhibition of hematopoietic tyrosine phosphatase HePTP – biochemical, set 2, SAR follow-up (AID 449736); type: functional
T1 sequence (P35236 whole entry): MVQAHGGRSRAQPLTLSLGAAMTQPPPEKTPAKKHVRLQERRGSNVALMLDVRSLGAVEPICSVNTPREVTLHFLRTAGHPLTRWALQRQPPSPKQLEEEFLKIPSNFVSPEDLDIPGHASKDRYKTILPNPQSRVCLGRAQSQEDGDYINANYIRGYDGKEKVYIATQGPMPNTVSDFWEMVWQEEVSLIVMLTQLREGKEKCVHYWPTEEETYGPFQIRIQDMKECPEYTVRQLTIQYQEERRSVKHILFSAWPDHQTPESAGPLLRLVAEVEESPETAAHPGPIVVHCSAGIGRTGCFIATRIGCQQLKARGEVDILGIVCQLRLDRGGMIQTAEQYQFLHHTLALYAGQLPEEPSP

[6] = biological target: T2, Dual specificity protein phosphatase 3 (Homo sapiens, UniProt P51452); assay: SAR VHR1 absorbance Assay for In Vitro dose response studies. [Related pubchem assays (depositor defined):AID1654, AID1661, AID1878, AID1992, AID2004]
T2 sequence (P51452 whole entry): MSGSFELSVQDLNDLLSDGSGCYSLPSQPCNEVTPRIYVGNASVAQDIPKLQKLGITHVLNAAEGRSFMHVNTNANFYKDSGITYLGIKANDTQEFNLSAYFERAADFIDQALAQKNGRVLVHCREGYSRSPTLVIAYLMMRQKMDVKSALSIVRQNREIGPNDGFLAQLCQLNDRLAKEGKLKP

[7] = biological target: T1, Tyrosine-protein phosphatase non-receptor type 7; assay: redox-active compounds inhibiting HePTP phosphatase – biochemical, fluorescence, mechanism study (AID 2068); type: functional
[8] = biological target: T3, Dual specificity protein phosphatase 6 (Rattus norvegicus, UniProt Q64346); type: functional;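 further: confirmatory in vitro dose-response testing of MKP-3 inhibition; recombinant His-tagged MKP-3 made in E. coli BL21 with OMFP substrate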
T3 sequence (Q64346 whole entry): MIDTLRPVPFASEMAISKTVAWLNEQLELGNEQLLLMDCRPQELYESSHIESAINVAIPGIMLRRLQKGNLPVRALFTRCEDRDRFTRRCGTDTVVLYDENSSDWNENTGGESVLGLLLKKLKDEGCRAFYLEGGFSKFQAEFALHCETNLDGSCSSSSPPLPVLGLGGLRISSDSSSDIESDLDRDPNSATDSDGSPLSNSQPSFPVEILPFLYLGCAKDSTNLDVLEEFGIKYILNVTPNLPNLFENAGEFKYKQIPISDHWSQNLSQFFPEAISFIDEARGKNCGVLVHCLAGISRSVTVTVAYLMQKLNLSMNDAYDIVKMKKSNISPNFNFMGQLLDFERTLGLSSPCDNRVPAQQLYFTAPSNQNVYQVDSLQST

[9] = biological target: T2, Dual specificity protein phosphatase 3; assay: SAR VHR1 Fluorescent Assay for In Vitro dose response studies. [Related pubchem assays (depositor defined):AID1654, AID1661, AID1878, AID1992, AID2004, AID2070, AID2085]; type: functional
[10] = biological target: T4, Tyrosine-protein phosphatase non-receptor type 22 (Homo sapiens, UniProt Q9Y2R2); assay: inhibition of lymphoid tyrosine phosphatase LYP – biochemical, pCAP fluorogenic substrate, fluorescence, set 3, SAR follow-up (AID 449727); type: functional
T4 sequence (Q9Y2R2 whole entry): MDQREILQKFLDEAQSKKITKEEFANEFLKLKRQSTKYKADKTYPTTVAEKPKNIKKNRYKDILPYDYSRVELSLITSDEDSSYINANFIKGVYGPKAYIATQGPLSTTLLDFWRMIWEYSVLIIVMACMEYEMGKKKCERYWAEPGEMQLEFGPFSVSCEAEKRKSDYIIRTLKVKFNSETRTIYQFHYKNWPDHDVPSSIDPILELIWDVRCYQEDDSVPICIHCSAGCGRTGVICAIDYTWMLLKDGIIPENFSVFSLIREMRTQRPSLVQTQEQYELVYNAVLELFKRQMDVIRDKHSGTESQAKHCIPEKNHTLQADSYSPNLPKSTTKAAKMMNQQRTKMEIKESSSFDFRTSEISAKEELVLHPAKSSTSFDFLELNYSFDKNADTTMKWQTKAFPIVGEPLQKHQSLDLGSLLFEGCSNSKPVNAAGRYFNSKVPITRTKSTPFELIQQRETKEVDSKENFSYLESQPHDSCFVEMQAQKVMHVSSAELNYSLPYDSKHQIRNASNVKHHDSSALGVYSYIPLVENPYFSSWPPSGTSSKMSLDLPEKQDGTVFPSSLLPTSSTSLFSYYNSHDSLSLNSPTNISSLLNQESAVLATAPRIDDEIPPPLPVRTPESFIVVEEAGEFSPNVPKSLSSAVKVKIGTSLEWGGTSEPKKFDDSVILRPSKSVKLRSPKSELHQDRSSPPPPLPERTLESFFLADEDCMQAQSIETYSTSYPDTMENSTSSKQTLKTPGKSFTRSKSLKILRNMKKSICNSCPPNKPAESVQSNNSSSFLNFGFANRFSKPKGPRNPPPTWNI

[11] = biological target: T4, Tyrosine-protein phosphatase non-receptor type 22; assay: SAR LYP1 Fluorescent Assay using OMFP substrate for In Vitro dose response studies - Set 3. [Related pubchem assays (depositor defined):AID1779, AID1784, AID2140, AID2686]; type: functional
[12] = biological target: Tyrosine-protein phosphatase non-receptor type 12 (Homo sapiens, UniProt Q05209); assay: SAR Selectivity Analysis of small molecule inhibitors of PEST using pCAP in a fluorescence assay. [Related pubchem assays (depositor defined):AID1779, AID1784, AID2135]; type: functional
Sequence of Tyrosine-protein phosphatase non-receptor type 12 (Q05209 whole entry): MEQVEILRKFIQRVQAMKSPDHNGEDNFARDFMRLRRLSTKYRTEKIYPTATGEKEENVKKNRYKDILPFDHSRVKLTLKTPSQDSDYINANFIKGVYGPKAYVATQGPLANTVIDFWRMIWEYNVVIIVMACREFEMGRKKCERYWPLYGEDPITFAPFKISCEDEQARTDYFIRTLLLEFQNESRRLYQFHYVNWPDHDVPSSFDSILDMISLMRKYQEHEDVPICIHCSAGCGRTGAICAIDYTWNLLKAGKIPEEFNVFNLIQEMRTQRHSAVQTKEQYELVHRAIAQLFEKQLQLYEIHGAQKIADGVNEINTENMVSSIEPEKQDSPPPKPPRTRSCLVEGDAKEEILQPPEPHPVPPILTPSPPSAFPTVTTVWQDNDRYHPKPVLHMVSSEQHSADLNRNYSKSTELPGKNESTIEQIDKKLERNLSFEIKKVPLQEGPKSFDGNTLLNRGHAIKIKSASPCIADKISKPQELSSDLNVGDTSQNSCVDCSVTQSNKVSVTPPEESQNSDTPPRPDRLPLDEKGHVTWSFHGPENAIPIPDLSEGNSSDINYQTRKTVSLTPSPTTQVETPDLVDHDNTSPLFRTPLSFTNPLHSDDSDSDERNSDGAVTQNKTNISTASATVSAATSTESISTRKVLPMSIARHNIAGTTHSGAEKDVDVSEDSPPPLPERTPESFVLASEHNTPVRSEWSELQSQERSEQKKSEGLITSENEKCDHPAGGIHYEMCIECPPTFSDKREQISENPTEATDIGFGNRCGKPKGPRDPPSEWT

[13] = biological target: T5, Cannabinoid receptor 2 (Homo sapiens, UniProt P34972); assay: SAR analysis of agonists of the Cannabinoid Receptor 2 using an Image-Based Assay - Set 3. [Related pubchem assays (depositor defined):AID2013, AID2026]; type: functional
T5 sequence (P34972 whole entry): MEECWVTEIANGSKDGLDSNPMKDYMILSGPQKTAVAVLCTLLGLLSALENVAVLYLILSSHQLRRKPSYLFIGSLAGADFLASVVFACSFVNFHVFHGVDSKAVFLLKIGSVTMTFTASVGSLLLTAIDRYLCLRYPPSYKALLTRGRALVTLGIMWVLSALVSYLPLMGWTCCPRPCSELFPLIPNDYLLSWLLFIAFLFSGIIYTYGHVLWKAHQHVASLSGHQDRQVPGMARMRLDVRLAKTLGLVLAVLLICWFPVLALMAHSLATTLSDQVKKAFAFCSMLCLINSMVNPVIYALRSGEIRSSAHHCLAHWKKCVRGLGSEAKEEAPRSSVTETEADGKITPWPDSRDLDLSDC

[14] = biological target: T6, G-protein coupled receptor 35 (Homo sapiens, UniProt Q9HC97); assay: SAR analysis of Antagonists of the GPR35 Receptor using an Image-Based Assay - Set 6. [Related pubchem assays (depositor defined):AID2013, AID2026]; type: functional
T6 sequence (Q9HC97 whole entry): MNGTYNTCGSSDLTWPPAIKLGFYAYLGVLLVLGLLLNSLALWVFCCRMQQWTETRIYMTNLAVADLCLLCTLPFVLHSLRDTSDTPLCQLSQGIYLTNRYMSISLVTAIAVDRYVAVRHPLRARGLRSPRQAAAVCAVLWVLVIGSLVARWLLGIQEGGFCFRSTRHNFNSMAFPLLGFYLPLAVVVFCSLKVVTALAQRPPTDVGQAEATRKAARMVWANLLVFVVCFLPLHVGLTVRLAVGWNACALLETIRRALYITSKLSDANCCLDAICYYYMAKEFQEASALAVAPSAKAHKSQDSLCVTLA

[15] = biological target: T5, Cannabinoid receptor 2; assay: SAR analysis of antagonists of the Cannabinoid Receptor 2 using an Image-Based Assay - Set 3. [Related pubchem assays (depositor defined):AID2013, AID2026]; type: functional
[16] = biological target: T7, Cannabinoid receptor 1 (Homo sapiens, UniProt P21554); assay: SAR analysis of antagonists of the Cannabinoid Receptor 1 using an Image-Based Assay - Set 4. [Related pubchem assays (depositor defined):AID2013, AID2026]; type: functional
T7 sequence (P21554 whole entry): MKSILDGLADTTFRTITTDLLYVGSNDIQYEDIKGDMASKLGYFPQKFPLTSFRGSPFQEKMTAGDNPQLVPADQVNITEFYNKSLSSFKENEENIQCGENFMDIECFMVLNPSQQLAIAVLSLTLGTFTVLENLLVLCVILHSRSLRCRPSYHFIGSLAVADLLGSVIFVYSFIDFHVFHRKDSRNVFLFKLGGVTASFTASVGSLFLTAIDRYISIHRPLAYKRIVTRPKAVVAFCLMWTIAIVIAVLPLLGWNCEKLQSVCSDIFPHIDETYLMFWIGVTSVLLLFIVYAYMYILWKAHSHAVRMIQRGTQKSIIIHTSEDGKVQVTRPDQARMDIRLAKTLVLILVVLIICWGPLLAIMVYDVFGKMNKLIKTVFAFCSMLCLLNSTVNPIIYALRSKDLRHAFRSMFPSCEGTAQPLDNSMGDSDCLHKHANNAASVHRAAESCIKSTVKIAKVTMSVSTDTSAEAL

[17] = biological target: G-protein coupled receptor 55 (Homo sapiens, UniProt Q9Y2T6); assay: SAR Analysis of Selective Antagonists of GPR55 using an Image-Based Assay - Set 4. [Related pubchem assays (depositor defined):AID2013, AID2026]; type: functional;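 further: antagonism of response to 5 µM lysophosphatidylinositol agonist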
Sequence of G-protein coupled receptor 55 (Q9Y2T6 whole entry): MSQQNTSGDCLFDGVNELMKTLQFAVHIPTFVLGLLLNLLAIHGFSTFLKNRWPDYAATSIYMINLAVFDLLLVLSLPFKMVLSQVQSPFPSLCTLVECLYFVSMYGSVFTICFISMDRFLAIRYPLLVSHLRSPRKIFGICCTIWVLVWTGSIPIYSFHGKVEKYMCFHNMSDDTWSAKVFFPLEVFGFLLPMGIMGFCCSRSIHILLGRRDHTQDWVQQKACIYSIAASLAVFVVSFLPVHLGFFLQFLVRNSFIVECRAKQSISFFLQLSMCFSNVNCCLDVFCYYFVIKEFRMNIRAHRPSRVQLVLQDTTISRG

[18] = biological target: T7, Cannabinoid receptor 1; assay: SAR analysis of agonists of the Cannabinoid Receptor 1 using an Image-Based Assay - Set 4. [Related pubchem assays (depositor defined):AID2013, AID2026]; type: functional
[19] = biological target: T6, G-protein coupled receptor 35; assay: SAR analysis of Agonists of the GPR35 Receptor using an Image-Based Assay - Set 4. [Related pubchem assays (depositor defined):AID2013, AID2026]; type: functional
[20] = biological target: T8, Probable nicotinate-nucleotide adenylyltransferase (Staphylococcus aureus (strain N315), UniProt P65502); type: functional, Staphylococcus aureus subsp. aureus N315;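 on IC50 Mean: confirmatory dose-response retesting of NadD inhibitor hits first found in an ultra-high-throughput screen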
T8 sequence (P65502 whole entry): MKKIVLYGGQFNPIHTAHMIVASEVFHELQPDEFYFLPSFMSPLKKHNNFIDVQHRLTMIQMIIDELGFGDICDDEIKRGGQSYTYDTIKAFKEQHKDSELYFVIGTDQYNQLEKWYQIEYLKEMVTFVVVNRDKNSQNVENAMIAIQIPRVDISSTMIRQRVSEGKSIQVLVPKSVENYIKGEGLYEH

[21] = biological target: T8, Probable nicotinate-nucleotide adenylyltransferase; type: functional, Staphylococcus aureus subsp. aureus N315; conditions: read-out: IC50_Mean

| SMILES | EC50 [1] | EC50 [3] | EC50 [4] | EC50 [13] | IC50 [14] | IC50 [15] | IC50 [16] | IC50 [17] | EC50 [18] | EC50 [19] | further results |
| --- | --- | --- | --- | --- | --- | --- | --- | --- | --- | --- | --- |
| O=C(NN1C(=O)/C(=C/c2nc3ccccc3[nH]2)SC1=S)c1cccc(Cl)c1 | > 79.4 µM (not active) | > 79.4 µM (not active) | > 79.4 µM (inactive) | – | – | – | – | – | – | – | EC50 [2]: 7.01 µM (active) |
| CSc1ccc(OCC(=O)O)cc1C | – | – | – | – | – | – | – | – | – | – | IC50 [5]: > 100 µM (inactive); IC50 [6]: > 100 µM (inactive); IC50 [7]: > 100 µM (inactive); IC50 [8]: > 99 µM (inactive); IC50 [9]: > 99 µM (inactive); IC50 [10]: > 100 µM (inactive); IC50 [11]: > 100 µM (inactive); IC50 [12]: > 100 µM (inactive) |
| CC(C)(C)c1ccc(-c2c(-c3nc4ccccc4[nH]3)n[nH]c2-c2ccccc2)cc1 | – | – | – | > 32 µM (inactive) | > 32 µM (inactive) | 13.9 µM (inactive) | 0.474 µM (active) | 11.7 µM (inactive) | > 32 µM (inactive) | > 32 µM (inactive) | – |
| CCCC(=O)Nc1c2c(nc3ccccc13)N(c1ccccc1)CC2 | > 79.4 µM (not active) | > 79.4 µM (not active) | > 79.4 µM (inactive) | – | – | – | – | – | – | – | – |
| COc1ccc(-c2cc(C(=O)Nc3ccc(S(=O)(=O)Nc4onc(C)c4C)cc3)c3ccccc3n2)cc1 | – | – | – | > 32 µM (inactive) | > 32 µM (inactive) | > 32 µM (inactive) | 16.9 µM (inactive) | 18.2 µM (inactive) | > 32 µM (inactive) | > 32 µM (inactive) | IC50 [20]: 5.33 µM (active); IC50 [21]: 17.3 µM (active) |
